From BindingDB's records for patent US12091399 (Boehringer Ingelheim International, 2024)

Target: Plasma kallikrein (Homo sapiens, UniProt P03952)
Test: Evaluation of the Inhibition of PKK Using an Endpoint Assay
Description: Subsequently, PPACK II (Calbiochem) was added as a stop solution to achieve a final concentration of 1 μM and fluorescence was measured using an Envision Reader (PerkinElmer) with the wavelength excitation setting of 355 nm and the wavelength emission setting of 460 nm.

Chain of Plasma kallikrein (P03952 20-390 limits assumed): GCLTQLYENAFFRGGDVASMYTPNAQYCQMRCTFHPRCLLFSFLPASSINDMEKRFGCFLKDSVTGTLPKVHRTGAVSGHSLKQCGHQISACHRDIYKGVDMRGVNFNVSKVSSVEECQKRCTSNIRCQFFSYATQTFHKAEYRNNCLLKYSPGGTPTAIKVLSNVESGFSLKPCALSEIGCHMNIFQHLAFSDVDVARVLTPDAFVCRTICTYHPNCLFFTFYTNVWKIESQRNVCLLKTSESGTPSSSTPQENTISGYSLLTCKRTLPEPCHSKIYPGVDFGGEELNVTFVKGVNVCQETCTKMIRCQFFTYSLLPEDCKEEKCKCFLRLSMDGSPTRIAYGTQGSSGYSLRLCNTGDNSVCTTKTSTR
Chain of Plasma kallikrein (P03952 391-638 limits assumed): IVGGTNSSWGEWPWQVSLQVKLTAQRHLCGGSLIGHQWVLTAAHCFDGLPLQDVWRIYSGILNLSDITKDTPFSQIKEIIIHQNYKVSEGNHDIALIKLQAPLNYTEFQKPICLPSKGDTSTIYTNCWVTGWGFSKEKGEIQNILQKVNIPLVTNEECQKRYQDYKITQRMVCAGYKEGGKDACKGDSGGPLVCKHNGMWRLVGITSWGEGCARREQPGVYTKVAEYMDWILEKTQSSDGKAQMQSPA

Question: For `Cc1nc(N2C[C@@H]3[C@@H](N)[C@@H]3C2)ccc1Cn1cc(C(=O)NCc2cc(Cl)ccc2-n2cnnn2)cn1` [US12091399, Example 58], which IC50 is on record?
Answer: Its IC50 is 38 nM.
